According to patent US8008291B2 (Mimetica Pty Ltd, priority 2008, dated 2011):
Where two headings read alike, the source gives them in different places.

How the values were obtained:
hMC1R = hMC1R (Homo sapiens, UniProt Q01726); assay: Human MC1R radioligand binding assay; conditions: hMCR binding selectivity, [125I] NDP-MSH, membranes
Method: (§1) • Na^125I (0.5 mCi, 17.4 Ci/mg) was added to 50 μL sodium phosphate (50 mM, pH7.4) in an eppendorf tube precoated with IODOGEN. After incubation for 10 mins the phosphate buffer containing the iodine was added to NDP-MSH (10 ul at 1 mg/mL) in a separate eppendorf tube. This was incubated for a further 10 mins. The iodinated NDP-MSH was purified by HPLC on a Zorbax SB 300 column using solvent A: 0.05% TFA and solvent B: 90% acetonitrile 0.045% TFA with a linear gradient, 0-67% B over 60 mins. […] Resuspended membranes were kept on ice until they were added to the wells of the plate. Binding Protocol for 400 microassays per vial: • Assays were performed in 96 well polypropylene plates. […] This was incubated for 1 hr at 37° C.
(§2) Radioligand binding assays were carried out using commercial or in-house prepared hMC1R, hMC3R and hMC4R membranes and [125I]
(§3) The homogenisation and ice incubation was repeated three times. The mixture was then centrifuged at 1260×g for 5 mins. […] This was centrifuged at 30,000×g for 90 mins at 4° C.

hMC3R = hMC3R (Homo sapiens, UniProt P41968); assay: Human MC3R radioligand binding assay; conditions: hMCR binding selectivity, [125I] NDP-MSH, membranes
Method: as §1, §2, §3

hMC4R = hMC4R (Homo sapiens, UniProt P32245); assay: Human MC4R radioligand binding assay; conditions: hMCR binding selectivity, [125I] NDP-MSH, membranes
Method: as §1, §2, §3

sebum excretion = conditions: oral, after 8-12 weeks of therapy; cited from earlier work
human MC5R (hMC5R) = biological target: T1, human MC5R (hMC5R) (Homo sapiens, UniProt P33032); assay: Human MC5R radioligand binding assay (membranes, [125I] NDP-MSH displacement)
T1 construct: purchased Perkin Elmer RBXMC5M400UA
Summary of the method: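 Displacement of [125I]NDP-MSH (radioiodinated in house, HPLC-purified) from hMC5R membranes by test compound measured after 1 hr incubation at 37° C.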

human MC5R [1] = biological target: T2, human MC5R (Homo sapiens, UniProt P33032); assay: cAMP stimulation assay, agonism, HEK 293 cells expressing human MC5R; type: cell-based
T2 construct: host or cells: HEK 293
Method: (§4) The mammalian cell line, human embryonic kidney cells (HEK 293), were maintained in Dulbeccos Modified Eagle's medium (DMEM) with 5% fetal bovine serum (BSA), L-glutamine, high glucose and antibiotics/antimycotics. On the day prior to transfection, cells were passaged using trypsin/EDTA and seeded into 75 cm^2 flasks so that they would be approximately 90% confluent the next day. The next day, the cell media was replaced with fresh antibiotic/antimycotic-containing DMEM. Approximately 100 μl of the transfection lipid Turbofectin 8.0 (Origene Technologies, MD, USA), was diluted in 1.0 mL of serum and antibiotic/antimycotic-free OptiMEM in a sterile 15 mL tube and incubated for 5 mins at room temperature. […]
(§5) Basal level (of cAMP) control wells contained stimulation buffer only (no agonist or compounds). […] After incubation, 10 μl of lysis buffer (10% Tween 20, 1 M HEPES, 0.1% BSA, protease inhibitors, ddH2O) was added to all wells to be measured. […] 5 μl of diluted acceptor beads were added to each well to be measured, then the plate was incubated for 30 mins at room temperature, in the dark, with gentle shaking. […] Plates were read on an Envision plate reader (Perkin Elmer) after 1 hr and ˜16hrs incubation. cAMP concentration in the cells was determined by the use of a ‘standard curve’ generated from the output of known cAMP concentrations as described below. […]

human MC5R [2] = biological target: T2, human MC5R; assay: cAMP assay, antagonism of alpha-MSH, HEK 293 cells expressing human MC5R; type: cell-based; conditions: antagonism of 10^−6 M alpha-MSH
Method: as §4, §5

[3] = biological target: T3, rhesus monkey MC5R (membranes) (Macaca mulatta, UniProt A0A5F8AEA9); assay: MC5R radioligand binding, rhesus monkey MC5R membranes
T3 construct: expressed in transfected cells

[4] = biological target: T4, rhesus monkey MC5R (whole cells) (Macaca mulatta, UniProt A0A5F8AEA9); assay: MC5R radioligand binding, rhesus monkey MC5R whole cells
T4 construct: expressed in transfected cells

mouse MC5R (membrane) = biological target: T5, mouse MC5R (membrane) (Mus musculus, UniProt P41149); assay: MC5R radioligand binding, mouse MC5R membranes
T5 construct: purchased Euroscreen

[5] = hMC5R binding, tested as trifluoroacetate or hydrochloride salts, or free bases, read-out: MC5R radioligand IC50

T1 sequence (P33032 whole entry): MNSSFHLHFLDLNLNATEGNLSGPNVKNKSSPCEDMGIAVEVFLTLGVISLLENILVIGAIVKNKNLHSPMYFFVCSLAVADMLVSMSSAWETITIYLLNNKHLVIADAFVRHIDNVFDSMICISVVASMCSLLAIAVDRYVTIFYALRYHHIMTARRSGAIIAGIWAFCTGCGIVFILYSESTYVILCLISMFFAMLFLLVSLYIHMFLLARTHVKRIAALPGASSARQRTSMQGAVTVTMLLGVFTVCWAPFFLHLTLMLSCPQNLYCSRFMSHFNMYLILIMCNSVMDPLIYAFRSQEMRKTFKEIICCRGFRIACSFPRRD
Chain of hMC1R (Q01726 whole entry): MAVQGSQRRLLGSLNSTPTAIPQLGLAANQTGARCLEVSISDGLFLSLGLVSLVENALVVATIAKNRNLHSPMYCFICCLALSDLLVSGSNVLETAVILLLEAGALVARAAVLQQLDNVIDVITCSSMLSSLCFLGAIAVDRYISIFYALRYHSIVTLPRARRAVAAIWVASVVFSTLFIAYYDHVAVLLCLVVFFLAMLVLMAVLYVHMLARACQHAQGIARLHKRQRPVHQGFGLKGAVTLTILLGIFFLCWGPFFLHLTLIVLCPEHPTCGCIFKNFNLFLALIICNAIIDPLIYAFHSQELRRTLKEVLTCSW
Chain of hMC4R (P32245 whole entry): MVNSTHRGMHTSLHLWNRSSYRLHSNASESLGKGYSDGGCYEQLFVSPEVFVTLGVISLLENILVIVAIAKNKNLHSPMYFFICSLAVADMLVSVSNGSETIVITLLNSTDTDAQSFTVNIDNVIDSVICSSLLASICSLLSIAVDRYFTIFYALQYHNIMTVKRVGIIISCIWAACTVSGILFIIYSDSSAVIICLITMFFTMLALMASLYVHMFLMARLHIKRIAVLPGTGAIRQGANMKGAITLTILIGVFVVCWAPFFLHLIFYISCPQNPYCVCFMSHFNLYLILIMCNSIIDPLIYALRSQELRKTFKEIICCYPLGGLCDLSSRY
T2 sequence (P33032 whole entry): as the sequence (P33032 whole entry) above
T3 sequence (A0A5F8AEA9 1-325): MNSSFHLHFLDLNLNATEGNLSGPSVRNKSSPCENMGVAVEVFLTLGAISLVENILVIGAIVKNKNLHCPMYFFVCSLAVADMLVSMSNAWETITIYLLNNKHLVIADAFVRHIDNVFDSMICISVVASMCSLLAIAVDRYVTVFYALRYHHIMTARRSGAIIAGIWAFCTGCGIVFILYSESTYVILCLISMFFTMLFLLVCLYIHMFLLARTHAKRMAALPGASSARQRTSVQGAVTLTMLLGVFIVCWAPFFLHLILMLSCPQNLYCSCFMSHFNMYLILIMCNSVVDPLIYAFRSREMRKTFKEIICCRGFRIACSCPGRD
T4 sequence (A0A5F8AEA9 1-325): as above
Chain of hMC3R (P41968 whole entry): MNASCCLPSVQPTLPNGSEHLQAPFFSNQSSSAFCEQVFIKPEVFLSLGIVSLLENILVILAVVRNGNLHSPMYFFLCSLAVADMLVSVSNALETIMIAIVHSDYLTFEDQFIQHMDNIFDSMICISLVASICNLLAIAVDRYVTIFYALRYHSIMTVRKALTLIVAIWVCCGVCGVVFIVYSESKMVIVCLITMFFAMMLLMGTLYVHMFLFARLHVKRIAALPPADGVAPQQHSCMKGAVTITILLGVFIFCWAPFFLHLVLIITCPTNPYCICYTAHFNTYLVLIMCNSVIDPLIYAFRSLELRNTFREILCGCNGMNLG
T5 sequence (P41149 whole entry): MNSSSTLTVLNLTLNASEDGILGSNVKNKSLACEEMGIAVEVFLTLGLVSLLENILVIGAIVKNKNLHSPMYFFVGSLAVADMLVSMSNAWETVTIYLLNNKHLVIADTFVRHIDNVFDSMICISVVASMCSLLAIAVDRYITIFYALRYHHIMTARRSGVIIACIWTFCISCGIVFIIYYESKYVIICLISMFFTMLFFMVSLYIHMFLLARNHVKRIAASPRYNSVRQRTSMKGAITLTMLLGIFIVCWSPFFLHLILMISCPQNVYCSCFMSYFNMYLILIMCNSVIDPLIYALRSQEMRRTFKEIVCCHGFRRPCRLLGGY

IC50 (hMC1R) [µM]	IC50 (hMC3R) [µM]	IC50 (hMC4R) [µM]	IC50 (human MC5R (hMC5R); [5]) [µM]	IC50 [3] [µM]	IC50 [4] [µM]	Structure (SMILES)	also measured
2.85	1.5	6.06				O=C(/C=C/c1ccc(Cl)cc1)NC[C@@H]1CCN(CC(c2ccccc2)c2ccccc2)C(=O)[C@H](CCN2CCCCC2)N1 [Compound 33, (E)-3-(4-chlorophenyl)-N-(((3S,5S)-1-(2,2-diphenylethyl)-2-oxo-3-(2-(piperidin-1-yl)ethyl)-1,4-diazepan-5-yl)methyl)acrylamide]	
						CC1=C(/C=C/C(C)=C/C=C/C(C)=C\C(=O)O)C(C)(C)CCC1 [isotretinoin]	reduction of sebum excretion (sebum excretion): up to 90%
	1.83		< 1			CCC(CC)CN1CC[C@@H](CNC(=O)/C=C/c2ccc(Cl)cc2)N[C@@H](CCN2CCCCC2)C1=O [Compound 331, (E)-3-(4-chlorophenyl)-N-(((3S,5S)-1-(2-ethylbutyl)-2-oxo-3-(2-(piperidin-1-yl)ethyl)-1,4-diazepan-5-yl)methyl)acrylamide]	IC50 (human MC5R (hMC5R); hMCR binding selectivity, [125I] NDP-MSH, membranes, read-out: human MC5R IC50): 0.15 µM; EC50 (human MC5R [1]): > 10 µM; IC50 (human MC5R [2]): 0.094 µM
				7.31	> 5	O=C(NC[C@@H]1CCN(CC(c2ccccc2)c2ccccc2)C(=O)[C@H](CCCN2CCCCC2)N1)c1ccc2ccccc2c1 [Compound 64, N-(((3S,5S)-1-(2,2-diphenylethyl)-2-oxo-3-(3-(piperidin-1-yl)propyl)-1,4-diazepan-5-yl)methyl)-2-naphthamide]	
6.66		3.28		6.03	3	N=C(N)NCCC[C@@H]1N[C@H](CNC(=O)c2ccc3ccccc3c2)CCN(CC(c2ccccc2)c2ccccc2)C1=O [Compound 105, N-(((3S,5S)-1-(2,2-diphenylethyl)-3-(3-guanidinopropyl)-2-oxo-1,4-diazepan-5-yl)methyl)-2-naphthamide]	IC50 (mouse MC5R (membrane)): 4 µM
			< 1			N=C(N)NCCC[C@@H]1N[C@H](CNC(=O)/C=C/c2ccccc2O)CCN(CC(c2ccccc2)c2ccccc2)C1=O [Compound 189, (E)-N-(((3S,5S)-1-(2,2-diphenylethyl)-3-(3-guanidinopropyl)-2-oxo-1,4-diazepan-5-yl)methyl)-3-(2-hydroxyphenyl)acrylamide]	
